These compounds were tested on EMT6 (assay: Reversal effect on the accumulation of [3H]- daunorubicin in mouse mammary carcinoma cell line EMT6/AR 1.0). Conditions: not given.
Type: functional, cell-based

Row | SMILES | IC50 [nM]
1 | COc1cc2c(cc1OC)CN(CCc1ccc(NC(=O)c3cc(OC)c(OC)cc3NC(=O)c3cnc4ccccc4c3)cc1)CC2 [TARIQUIDAR] | 38

Same assay, conditions: read-out: IC50

Row | IC50 [nM] | SMILES
2 | 5000 | COc1ccc(CCn2c(-c3ccc(N(C)C)cc3)nc3ccccc3c2=O)cc1OC
3 | 2700 | COc1cc2c(cc1OC)CN(CCc1ccc(NC(=O)c3ccccc3Oc3ccccc3)cc1)CC2
4 | 790 | COc1cc2c(cc1OC)CN(CCc1ccc(NC(=O)c3ccccc3NC(=O)c3ccc4ccccc4n3)cc1)CC2
5 | 680 | COc1cc2c(cc1OC)CN(CCc1ccc(NC(=O)c3ccccc3NC(=O)c3ccccn3)cc1)CC2
6 | 220 | COc1cc2c(cc1OC)CN(CCc1ccc(NC(=O)c3cccc(/C=c4\[nH]c(=O)/c(=C/c5ccccc5)n(C)c4=O)c3)cc1)CC2
7 | 67 | COc1cc2c(cc1OC)CN(CCc1ccc(NC(=O)c3ccccc3NC(=O)c3cnc(C)cn3)cc1)CC2
8 | 45 | COc1cc2c(cc1OC)CN(CCc1ccc(NC(=O)c3ccc([N+](=O)[O-])cc3NC(=O)c3cnc4ccccc4c3)cc1)CC2
9 | 4900 | COc1cc2c(cc1OC)CN(CCc1ccc(NC(=O)c3ccccc3NC(=O)c3cc4ccccc4cn3)cc1)CC2
10 | 60 | COc1cc2c(cc1OC)CN(CCc1ccc(NC(=O)c3cc(F)ccc3NC(=O)c3cnc4ccccc4c3)cc1)CC2
11 | 220 | COc1cc2c(cc1OC)CN(CCc1ccc(NC(=O)c3cc(C)ccc3NC(=O)c3cnc4ccccc4c3)cc1)CC2
12 | 250 | COc1cc2c(cc1OC)CN(CCc1ccc(NC(=O)c3ccccc3NC(=O)c3ccccc3)cc1)CC2
13 | 92 | COc1cc2c(cc1OC)CN(CCc1ccc(NC(=O)c3ccccc3NC(=O)c3cnc4ccccc4n3)cc1)CC2
14 | 920 | COc1cc2c(cc1OC)CN(CCc1ccc(NC(=O)c3ccccc3NC(=O)c3ccoc3)cc1)CC2
15 | 2300 | COc1cc2c(cc1OC)CN(CCc1ccc(NC(=O)c3ccccc3Sc3ccccc3)cc1)CC2

More lines, now with the values behind:

Row | SMILES | IC50 [nM]
16 | COc1cc2c(cc1OC)CN(CCNC(=O)c1ccccc1NC(=O)c1ccc(N(C)C)cc1)CC2 | 2400
17 | COc1cc2c(cc1OC)CN(CCc1ccc(NC(=O)c3ccccc3NC(=O)c3cccnc3)cc1)CC2 | 880
18 | COc1cc2c(cc1OC)CN(CCc1ccc(NC(=O)c3ccccc3NC(=O)c3ccco3)cc1)CC2 | 3300
19 | COc1cc2c(cc1OC)CN(CCNC(=O)c1ccccc1NC(=O)c1ccc(C3CCCCC3)cc1)CC2 | 1600
20 | COc1cc2c(cc1OC)CN(CCc1ccc(NC(=O)c3ccccc3NC(=O)c3ccsc3)cc1)CC2 | 730
21 | COc1cc2c(cc1OC)CN(CCc1ccc(NC(=O)c3ccccc3NC(=O)c3cnccn3)cc1)CC2 | 204
22 | COc1cc2c(cc1OC)CN(CCc1ccc(NC(=O)c3ccccc3-c3ccccc3)cc1)CC2 | 1700
23 | COc1cc2c(cc1OC)CN(CCc1ccc(NC(=O)c3ccccc3C(=O)c3ccccc3)cc1)CC2 | 1100
24 | COc1cc2c(cc1OC)CN(CCc1ccc(NC(=O)c3cc(Cl)ccc3NC(=O)c3cnc4ccccc4c3)cc1)CC2 | 149
25 | COc1cc2c(cc1OC)CN(CCc1ccc(NC(=O)c3ccccc3NC(=O)c3ccc(C)nc3)cc1)CC2 | 67
26 | COc1cc2c(cc1OC)CN(CCNC(=O)c1ccccc1NC(=O)c1ccccc1)CC2 | 6800
27 | COc1cc2c(cc1OC)CN(CCc1ccc(NC(=O)c3cc(N(C)C)ccc3NC(=O)c3cnc4ccccc4c3)cc1)CC2 | 293
28 | COc1cc2c(cc1OC)CN(CCc1ccc(NC(=O)c3ccc(F)cc3NC(=O)c3cnc4ccccc4c3)cc1)CC2 | 38
29 | COc1cc2c(cc1OC)CN(CCc1ccc(NC(=O)c3ccc(Cl)cc3NC(=O)c3cnc4ccccc4c3)cc1)CC2 | 141
30 | COc1cc2c(cc1OC)CN(CCc1ccc(NC(=O)c3ccccc3NC(=O)c3ccc(C(C)C)cc3)cc1)CC2 | 850
31 | COc1cc2c(cc1OC)CN(CCNC(=O)c1ccccc1NC(=O)c1ccc(C(C)C)cc1)CC2 | 1100
32 | COc1cc2c(cc1OC)CN(CCc1ccc(NC(=O)c3ccccc3NC(=O)c3cnc4ccccc4c3)cc1)CC2 | 87

What follows are compounds tested on MDR (assay: Potency tested against multidrug resistance (MDR) cell lines expressing P-gp (P-glycoprotein)). Conditions: not given.
Type: functional, cell-based

Row | EC50 [nM] | SMILES
33 | 27 | COc1cc2c(cc1OC)CN(CCc1ccc(NC(=O)c3cc(F)ccc3NC(=O)c3cnc4ccccc4c3)cc1)CC2
34 | 19 | COc1cc2c(cc1OC)CN(CCc1ccc(NC(=O)c3ccccc3NC(=O)c3cnc4ccccc4n3)cc1)CC2

Continued, compound first:

Row | SMILES | EC50 [nM]
35 | COc1cc2c(cc1OC)CN(CCc1ccc(NC(=O)c3ccccc3NC(=O)c3cnc4ccccc4c3)cc1)CC2 | 30
36 | COc1cc2c(cc1OC)CN(CCc1ccc(NC(=O)c3cc(OC)c(OC)cc3NC(=O)c3cnc4ccccc4c3)cc1)CC2 [TARIQUIDAR] | 16.3
